Source: the supplement of paper PMC10307832

Columns and labels:
Assay in all cases: relative viability (nuclei count vs DMSO), 5 days (fraction); higher = more cells survive
A549 = system: A549
Outline: (§1)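 Five library-drug doses in √10 steps were combined with a fixed anchor-drug dose, or a single drug was given alone, by pin tool to lung cancer cell lines in 1536-well plates the day after seeding. Nuclei were stained and counted after 5 days. Relative viability is the nuclei count in treated wells over that in vehicle wells, taken as the median of duplicate plates.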

Calu-6 = system: Calu-6
Outline: as §1

EBC-1 = system: EBC-1
Outline: as §1

IA-LM = system: IA-LM
Outline: as §1

NCI-H1299 = system: NCI-H1299
Outline: as §1

NCI-H1651 = system: NCI-H1651
Outline: as §1

NCI-H1703 = system: NCI-H1703
Outline: as §1

NCI-H1944 = system: NCI-H1944
Outline: as §1

NCI-H520 = system: NCI-H520
Outline: as §1

NCI-H650 = system: NCI-H650
Outline: as §1

NCI-H838 = system: NCI-H838
Outline: as §1

RERF-LC-KJ = system: RERF-LC-KJ
Outline: as §1

Compound: CCN(CC)CCCCNc1ncc2cc(-c3cc(OC)cc(OC)c3)c(NC(=O)NC(C)(C)C)nc2n1 + CS(=O)(=O)N1CCN(Cc2cc3nc(-c4cccc5[nH]ncc45)nc(N4CCOCC4)c3s2)CC1 [Pictilisib] (partner 1 µM)
- relative viability (A549; first compound 0.01 µM): 0.52
- relative viability (A549; first compound 0.03162 µM): 0.543
- relative viability (A549; first compound 0.1 µM): 0.562
- relative viability (A549; first compound 0.3162 µM): 0.621
- relative viability (A549; first compound 1 µM): 0.41
- relative viability (Calu-6; first compound 0.01 µM): 1.01
- relative viability (Calu-6; first compound 0.03162 µM): 0.994
- relative viability (Calu-6; first compound 0.1 µM): 1.12
- relative viability (Calu-6; first compound 0.3162 µM): 1.09
- relative viability (Calu-6; first compound 1 µM): 0.87
- relative viability (EBC-1; first compound 0.01 µM): 0.369
- relative viability (EBC-1; first compound 0.03162 µM): 0.32
- relative viability (EBC-1; first compound 0.1 µM): 0.342
- relative viability (EBC-1; first compound 0.3162 µM): 0.37
- relative viability (EBC-1; first compound 1 µM): 0.293
- relative viability (IA-LM; first compound 0.01 µM): 0.329
- relative viability (IA-LM; first compound 0.03162 µM): 0.329
- relative viability (IA-LM; first compound 0.1 µM): 0.342
- relative viability (IA-LM; first compound 0.3162 µM): 0.333
- relative viability (IA-LM; first compound 1 µM): 0.265
- relative viability (NCI-H1299; first compound 0.01 µM): 0.883
- relative viability (NCI-H1299; first compound 0.03162 µM): 0.845
- relative viability (NCI-H1299; first compound 0.1 µM): 0.851
- relative viability (NCI-H1299; first compound 0.3162 µM): 0.96
- relative viability (NCI-H1299; first compound 1 µM): 0.775
- relative viability (NCI-H1651; first compound 0.01 µM): 0.693
- relative viability (NCI-H1651; first compound 0.03162 µM): 0.706
- relative viability (NCI-H1651; first compound 0.1 µM): 0.624
- relative viability (NCI-H1651; first compound 0.3162 µM): 0.466
- relative viability (NCI-H1651; first compound 1 µM): 0.275
- relative viability (NCI-H1703; first compound 0.01 µM): 0.233
- relative viability (NCI-H1703; first compound 0.03162 µM): 0.222
- relative viability (NCI-H1703; first compound 0.1 µM): 0.244
- relative viability (NCI-H1703; first compound 0.3162 µM): 0.213
- relative viability (NCI-H1703; first compound 1 µM): 0.252
- relative viability (NCI-H1944; first compound 0.01 µM): 0.362
- relative viability (NCI-H1944; first compound 0.03162 µM): 0.327
- relative viability (NCI-H1944; first compound 0.1 µM): 0.367
- relative viability (NCI-H1944; first compound 0.3162 µM): 0.352
- relative viability (NCI-H1944; first compound 1 µM): 0.341
- relative viability (NCI-H520; first compound 0.01 µM): 0.292
- relative viability (NCI-H520; first compound 0.03162 µM): 0.301
- relative viability (NCI-H520; first compound 0.1 µM): 0.264
- relative viability (NCI-H520; first compound 0.3162 µM): 0.225
- relative viability (NCI-H520; first compound 1 µM): 0.146
- relative viability (NCI-H650; first compound 0.01 µM): 0.874
- relative viability (NCI-H650; first compound 0.03162 µM): 0.889
- relative viability (NCI-H650; first compound 0.1 µM): 0.973
- relative viability (NCI-H650; first compound 0.3162 µM): 0.998
- relative viability (NCI-H650; first compound 1 µM): 0.925
- relative viability (NCI-H838; first compound 0.01 µM): 0.441
- relative viability (NCI-H838; first compound 0.03162 µM): 0.4
- relative viability (NCI-H838; first compound 0.1 µM): 0.395
- relative viability (NCI-H838; first compound 0.3162 µM): 0.383
- relative viability (NCI-H838; first compound 1 µM): 0.244
- relative viability (RERF-LC-KJ; first compound 0.01 µM): 0.695
- relative viability (RERF-LC-KJ; first compound 0.03162 µM): 0.639
- relative viability (RERF-LC-KJ; first compound 0.1 µM): 0.528
- relative viability (RERF-LC-KJ; first compound 0.3162 µM): 0.671
- relative viability (RERF-LC-KJ; first compound 1 µM): 0.526

Compound: O=c1cc(-c2cccc3c2Sc2ccccc2S3)oc(N2CCOCC2)c1 + CS(=O)(=O)N1CCN(Cc2cc3nc(-c4cccc5[nH]ncc45)nc(N4CCOCC4)c3s2)CC1 [Pictilisib] (partner 1 µM)
- relative viability (A549; first compound 0.08 µM): 0.542
- relative viability (A549; first compound 0.253 µM): 0.852
- relative viability (A549; first compound 0.8 µM): 0.681
- relative viability (A549; first compound 2.53 µM): 0.481
- relative viability (A549; first compound 8 µM): 0.651
- relative viability (Calu-6; first compound 0.08 µM): 0.86
- relative viability (Calu-6; first compound 0.253 µM): 0.882
- relative viability (Calu-6; first compound 0.8 µM): 0.96
- relative viability (Calu-6; first compound 2.53 µM): 0.959
- relative viability (Calu-6; first compound 8 µM): 0.871
- relative viability (EBC-1; first compound 0.08 µM): 0.352
- relative viability (EBC-1; first compound 0.253 µM): 0.469
- relative viability (EBC-1; first compound 0.8 µM): 0.342
- relative viability (EBC-1; first compound 2.53 µM): 0.401
- relative viability (EBC-1; first compound 8 µM): 0.298
- relative viability (IA-LM; first compound 0.08 µM): 0.278
- relative viability (IA-LM; first compound 0.8 µM): 0.328
- relative viability (IA-LM; first compound 2.53 µM): 0.346
- relative viability (IA-LM; first compound 8 µM): 0.315
- relative viability (NCI-H1299; first compound 0.08 µM): 0.679
- relative viability (NCI-H1299; first compound 0.253 µM): 0.827
- relative viability (NCI-H1299; first compound 0.8 µM): 0.856
- relative viability (NCI-H1299; first compound 2.53 µM): 0.763
- relative viability (NCI-H1299; first compound 8 µM): 0.854
- relative viability (NCI-H1651; first compound 0.08 µM): 0.512
- relative viability (NCI-H1651; first compound 0.253 µM): 0.857
- relative viability (NCI-H1651; first compound 0.8 µM): 0.546
- relative viability (NCI-H1651; first compound 2.53 µM): 0.59
- relative viability (NCI-H1651; first compound 8 µM): 0.509
- relative viability (NCI-H1703; first compound 0.253 µM): 0.25
- relative viability (NCI-H1703; first compound 0.8 µM): 0.279
- relative viability (NCI-H1703; first compound 2.53 µM): 0.241
- relative viability (NCI-H1703; first compound 8 µM): 0.316
- relative viability (NCI-H1944; first compound 0.08 µM): 0.324
- relative viability (NCI-H1944; first compound 0.253 µM): 0.352
- relative viability (NCI-H1944; first compound 0.8 µM): 0.29
- relative viability (NCI-H1944; first compound 8 µM): 0.346
- relative viability (NCI-H520; first compound 0.08 µM): 0.308
- relative viability (NCI-H520; first compound 0.253 µM): 0.354
- relative viability (NCI-H520; first compound 0.8 µM): 0.306
- relative viability (NCI-H520; first compound 2.53 µM): 0.273
- relative viability (NCI-H520; first compound 8 µM): 0.374
- relative viability (NCI-H650; first compound 0.08 µM): 0.807
- relative viability (NCI-H650; first compound 0.253 µM): 0.873
- relative viability (NCI-H650; first compound 0.8 µM): 0.741
- relative viability (NCI-H650; first compound 2.53 µM): 0.806
- relative viability (NCI-H650; first compound 8 µM): 0.767
- relative viability (NCI-H838; first compound 0.08 µM): 0.415
- relative viability (NCI-H838; first compound 0.253 µM): 0.643
- relative viability (NCI-H838; first compound 0.8 µM): 0.372
- relative viability (NCI-H838; first compound 2.53 µM): 0.426
- relative viability (NCI-H838; first compound 8 µM): 0.408
- relative viability (RERF-LC-KJ; first compound 0.08 µM): 0.43
- relative viability (RERF-LC-KJ; first compound 0.253 µM): 0.608
- relative viability (RERF-LC-KJ; first compound 0.8 µM): 0.622
- relative viability (RERF-LC-KJ; first compound 2.53 µM): 0.571
- relative viability (RERF-LC-KJ; first compound 8 µM): 0.521
